Test results from US9770026B2, “Substituted pyrimidine compound and uses thereof” (Shenyang Sinochem Agrochemicals R&D Co., Ltd., priority 2012, dated 2017).

How the values were obtained:
wheat powdery mildew = test: protectant activity in vivo against wheat powdery mildew
corn rust = test: protectant activity in vivo against corn rust; settings: for control effect against corn rust (%): protectant activity
[1] = tested on: Green peach aphids (Myzus Persicae Sulzer); test: bioactivity test against green peach aphid, airbrush foliar spray; type: in vivo; settings: death rate after 48 hrs
Description: (§1) Compounds were dissolved in mixed solvent (acetone:methanol=1:1), and diluted to required concentration with water containing 0.1% of tween 80.
(§2) Diamond back moth, armyworm, peach aphid and carmine spider mite were used as targets and the method of spraying by airbrush was used for determination of insecticidal biassays.
Method: Filter papers were put in culture dishes (Diameter=6 cm), and water was dripped on filter papers for preserving moisture. Green peach aphids (Myzus Persicae Sulzer) were maintained on cabbage. Leaves (Diameter=3 cm) of approximately 15-30 aphids were put in the culture dishes. Bioactivity tests were used the method of Airbrush Foliar Spray, pressure=10 psi (0.7 kg/cm2), spray volume=0.5 mL. The studies were conducted at […] 25±1 C in incubator cabinets with 60±5% RH. Survey the survival aphids after 48 hrs and calculate the death rates.

cucumber downy mildew = test: protectant activity in vivo against cucumber downy mildew
armyworm = test: bioactivity test against armyworm, airbrush spray; type: in vivo; settings: for control (test results against armyworm): mortality after 72 h
Description: as §1, §2
The method of spraying by airbrush: The corn leaves were made into plates of 2 cm diameter by use of punch. A test solution (0.5 ml) was sprayed by airbrush at the pressure of 0.7 kg/cm^2 to both sides of every plate. 10 Second instar larvae were put into the petri-dishes after the leaf disc air-dried and 3 replicates were set for each treatment. Then the insects were maintained in observation room (25 °C, 60˜70% R.H.). Scores were conducted and mortalities were calculated after 72 h.

carmine spider mite = test: bioactivity test against carmine spider mite, airbrush spray; type: in vivo; settings: for control against carmine spider mite: mortality after 72 hrs
Description: as §1, §2
The method: Broadbean shoots with two true leaves in pot were taken, the healthy adults of carmine spider mite were inoculated to the leaves. The adults were counted and then sprayed with airbrush at the pressure of 0.7 kg/cm^2 and at dose of 0.5 ml. 3 replicates were set for each treatment. And then they were maintained in standard observation room. Scores were conducted and mortalities were calculated after 72 hrs.

CCc1ncnc(NCCc2ccc(Oc3ccc(Cl)cc3Cl)cc2)c1Cl [II-299]
protectant activity against wheat powdery mildew in vivo (wheat powdery mildew; 400 ppm): 100% | protectant activity against corn rust in vivo (corn rust; 100 ppm): 100% | protectant activity against corn rust in vivo (corn rust; 400 ppm): 100% | control (test results against green peach aphid) ([1]; 100 ppm): 100% | control (test results against green peach aphid) ([1]; 600 ppm): 100% | protectant activity against cucumber downy mildew in vivo (cucumber downy mildew; 100 ppm): 100% | protectant activity against cucumber downy mildew in vivo (cucumber downy mildew; 400 ppm): 100% | control (test results against armyworm) (armyworm; 600 ppm): 100% | Insecticidal activity against carmine spider mite (% ) (carmine spider mite; 10 mg/L, contrastive test): 72% | Insecticidal activity against carmine spider mite (% ) (carmine spider mite; 100 mg/L, contrastive test): 100% | Insecticidal activity against carmine spider mite (% ) (carmine spider mite; 600 mg/L, contrastive test): 100% | control against carmine spider mite (carmine spider mite; 100 ppm): 100% | control against carmine spider mite (carmine spider mite; 600 ppm): 100%

Cc1ncnc(NCCc2ccc(Oc3ccc(C(F)(F)F)cn3)cc2)c1Br [Compound I-1762]
protectant activity against wheat powdery mildew in vivo (wheat powdery mildew; 400 ppm): 100% | protectant activity against corn rust in vivo (corn rust; 400 ppm): 100% | control (test results against green peach aphid) ([1]; 5 ppm): 100% | control (test results against green peach aphid) ([1]; 10 ppm): 100% | control (test results against green peach aphid) ([1]; 100 ppm): 100% | control (test results against green peach aphid) ([1]; 600 ppm): 100% | protectant activity against cucumber downy mildew in vivo (cucumber downy mildew; 400 ppm): 100% | control against carmine spider mite (carmine spider mite; 100 ppm): 100% | control against carmine spider mite (carmine spider mite; 600 ppm): 100%

CCc1ncnc(NCc2ccc(Oc3ncc(Cl)cc3Cl)cc2)c1Cl [CK64, reference compound]
pest or weed control at 600 µg/mL (armyworm; 72 h, 600 mg/L, read-out: Insecticidal activity against armyworm (%)): 0% | pest or weed control at 600 µg/mL (carmine spider mite; Tetranychus cinnabarinus, 72 h, 600 mg/L, contrastive test, read-out: Insecticidal activity against carmine spider mite (% )): 56%

Cc1ncnc(NCCc2ccc(Oc3ncccc3C(F)(F)F)cc2)c1Cl [Compound I-929]
protectant activity against wheat powdery mildew in vivo (wheat powdery mildew; 400 ppm): 100% | protectant activity against corn rust in vivo (corn rust; 400 ppm): 100% | control (test results against green peach aphid) ([1]; 600 ppm): 100% | control against carmine spider mite (carmine spider mite; 600 ppm): 100%

CCc1c(Cl)c(NCCc2ccc(Oc3ccc(C(F)(F)F)cc3)cc2)nc[n+]1CC(=O)c1ccccc1.[Br-] [CK5, reference compound]
control effect against corn rust (%) (corn rust; 6.25 mg/L): 30% | control effect against corn rust (%) (corn rust; 25 mg/L): 40% | control effect against corn rust (%) (corn rust; 100 mg/L): 98% | control effect against corn rust (%) (corn rust; 400 mg/L): 95% | Insecticidal activity against armyworm (%) (armyworm; 10 mg/L): 0% | Insecticidal activity against armyworm (%) (armyworm; 100 mg/L): 56% | Insecticidal activity against armyworm (%) (armyworm; 600 mg/L): 100%

CCc1ncnc(NCCc2ccc(Oc3ccc(C(F)(F)F)cn3)cc2)c1Cl [Compound I-6741]
protectant activity against wheat powdery mildew in vivo (wheat powdery mildew; 100 ppm): 100% | protectant activity against wheat powdery mildew in vivo (wheat powdery mildew; 400 ppm): 100% | protectant activity against corn rust in vivo (corn rust; 100 ppm): 100% | protectant activity against corn rust in vivo (corn rust; 400 ppm): 100% | control (test results against green peach aphid) ([1]; 5 ppm): 100% | control (test results against green peach aphid) ([1]; 10 ppm): 100% | control (test results against green peach aphid) ([1]; 100 ppm): 100% | control (test results against green peach aphid) ([1]; 600 ppm): 100% | control (test results against armyworm) (armyworm; 100 ppm): 100% | control (test results against armyworm) (armyworm; 600 ppm): 100% | Insecticidal activity against carmine spider mite (% ) (carmine spider mite; 10 mg/L, contrastive test): 85% | Insecticidal activity against carmine spider mite (% ) (carmine spider mite; 100 mg/L, contrastive test): 100% | Insecticidal activity against carmine spider mite (% ) (carmine spider mite; 600 mg/L, contrastive test): 100% | control against carmine spider mite (carmine spider mite; 100 ppm): 100% | control against carmine spider mite (carmine spider mite; 600 ppm): 100%

Cc1ncnc(NCCc2ccc(Oc3cccc(F)c3)c(Cl)c2)c1Cl [II-559]
control (test results against armyworm) (armyworm; 600 ppm): 100%
